What was measured:
CYPES = test: Pre-emergence herbicidal action against CYPES; type: in vivo, Cyperus esculentus; conditions: scored visually after about 3 weeks vs untreated controls, 100% = plants have died, 0% = like control plants
Excerpt: (§1) Seeds of mono- and dicotyledonous weed plants are placed in plastic pots in sandy loam soil (doubly sown with one species each of mono- or dicotyledonous weed plants per pot) and covered with soil. The compounds of the invention, formulated in the form of wettable powders (WP) or as emulsion concentrates (EC), are then applied onto the surface of the covering soil as aqueous suspension or emulsion with addition of 0.5% additive at a water application rate equivalent to 600 litres per hectare. After the treatment, the pots are placed in a greenhouse and kept under good growth conditions for the trial plants. After about 3 weeks, the effect of the preparations is scored visually in comparison with untreated controls as percentages. For example, 100% activity=the plants have died, 0% activity=like control plants. [table] Tables 4.1-4.15 below show the effects of selected compounds of the general formula (I) according to Tables 1 to 3 on various harmful plants at an application rate corresponding to 1280 or 320 g/ha, which have been obtained by the aforementioned experimental method.

AMARE [1] = test: Pre-emergence herbicidal action against AMARE; type: in vivo, Amaranthus retroflexus; conditions: scored visually after about 3 weeks vs untreated controls; for Pre-emergence action at 320 g/ha against AMARE in %: 100% = plants have died, 0% = like control plants; for Pre-emergence action against AMARE in %: 1280 g/ha
Method in brief: (§2)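 Greenhouse pot test on sown, soil-covered weed seeds; spray of WP or EC formulation at 1280 or 320 g/ha onto covering soil. Effect rated visually after about 3 weeks (0% = like control, 100% = dead).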

MATIN [2] = test: Pre-emergence herbicidal action against MATIN; type: in vivo, Matricaria inodora; conditions: 1280 g/ha, scored visually after about 3 weeks vs untreated controls
Method in brief: as §2

PHBPU [3] = test: Pre-emergence herbicidal action against PHBPU; type: in vivo, Pharbitis purpurea; conditions: 1280 g/ha, scored visually after about 3 weeks vs untreated controls
Excerpt: as §1

STEME [4] = test: Pre-emergence herbicidal action against STEME; type: in vivo, Stellaria media; conditions: scored visually after about 3 weeks vs untreated controls
Method in brief: as §2

VERPE [5] = test: Pre-emergence herbicidal action against VERPE; type: in vivo, Veronica persica; conditions: 320 g/ha, scored visually after about 3 weeks vs untreated controls
Method in brief: as §2

ECHCG [6] = test: Post-emergence herbicidal action against ECHCG; type: in vivo, Echinochloa crus-galli; conditions: 1280 g/ha, post-emergence at one-leaf stage, rated visually after about 3 weeks vs untreated controls
Method in brief: (§3)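 Herbicidal effect, rated visually about 3 weeks after treatment as percent versus untreated controls. Test plants in sandy loam had received a foliar application at the one-leaf stage of 1280 or 320 g/ha, formulated as WP or EC with 0.5% additive in 600 litres per hectare water.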

AMARE [7] = test: Post-emergence herbicidal action against AMARE; type: in vivo, Amaranthus retroflexus; conditions: visual rating about 3 weeks after treatment
Method in brief: as §3

MATIN [8] = test: Post-emergence herbicidal action against MATIN; type: in vivo, Matricaria inodora; conditions: visual rating about 3 weeks after treatment
Method in brief: as §3

PHBPU [9] = test: Post-emergence herbicidal action against PHBPU; type: in vivo, Pharbitis purpurea; conditions: 320 g/ha, visual rating about 3 weeks after treatment
Method in brief: as §3

STEME [10] = test: Post-emergence herbicidal action against STEME; type: in vivo, Stellaria media; conditions: visual rating about 3 weeks after treatment
Method in brief: as §3

harmful plants [11] = test: Pre-emergence herbicidal action, summary of Tables 4.1-4.15; type: in vivo; conditions: result in words
Method in brief: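 Percent herbicidal action (100% = plants dead, 0% = like controls) was assessed visually about 3 weeks after treatment. Application rates of 1280 or 320 g/ha were applied to the covering soil of freshly sown sandy-loam pots, in 600 l/ha water with 0.5% additive, before emergence.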

harmful plants [12] = test: Post-emergence herbicidal action, summary of Tables 5.1-5.16; type: in vivo; conditions: result in words
Method: Seeds of mono- and dicotyledonous weed plants are placed in plastic pots in sandy loam soil (twin sowing with one species each of mono- or dicotyledonous weed plants per pot), covered with soil and cultivated in a greenhouse under controlled growth conditions. 2 to 3 weeks after sowing, the test plants are treated at the one-leaf stage. The compounds of the invention, formulated in the form of wettable powders (WP) or as emulsion concentrates (EC), are applied to the green parts of the plants as aqueous suspension or emulsion with addition of 0.5% additive at a water application rate equivalent to 600 litres per hectare. After the test plants have been kept in the greenhouse under optimum growth conditions for about 3 weeks, the activity of the preparations is rated visually in comparison to untreated controls. For example, 100% activity=the plants have died, 0% activity=like control plants. Tables 5.1-5.16 below show the effects of selected compounds of the general formula (I) according to Tables 1 to 3 on various harmful plants at an application rate corresponding to 1280 or 320 g/ha, which have been obtained by the aforementioned experimental method. As the results from Tables 5.1-5.16 show, compounds of the invention have good herbicidal post-emergence efficacy against a broad spectrum of weed grasses and weeds. […] For example, compounds Nos. I-002, I-006, I-022, I-056 and I-072 applied by the post-emergence method have very good herbicidal action (80% to 100% herbicidal action) against harmful plants such as Alopecurus myosuroides, Amaranthus retroflexus, Matricaria inodora, Setaria viridis, Pharbitis purpurea and Stellaria media at an application rate of 1.28 kg of active substance or less per hectare.

ALOMY [13] = test: Pre-emergence herbicidal action against ALOMY; type: in vivo, Alopecurus myosuroides; conditions: scored visually after about 3 weeks vs untreated controls, 100% = plants have died, 0% = like control plants
Excerpt: as §1

ECHCG [14] = test: Pre-emergence herbicidal action against ECHCG; type: in vivo, Echinochloa crus-galli; conditions: scored visually after about 3 weeks vs untreated controls, 100% = plants have died, 0% = like control plants
Method in brief: as §2

SETVI [15] = test: Pre-emergence herbicidal action against SETVI; type: in vivo, Setaria viridis; conditions: 1280 g/ha, scored visually after about 3 weeks vs untreated controls
Method in brief: as §2

VIOTR [16] = test: Pre-emergence herbicidal action against VIOTR; type: in vivo, Viola tricolor; conditions: 1280 g/ha, scored visually after about 3 weeks vs untreated controls
Method in brief: as §2

ALOMY [17] = test: Post-emergence herbicidal action against ALOMY; type: in vivo, Alopecurus myosuroides; conditions: 1280 g/ha, post-emergence at one-leaf stage, rated visually after about 3 weeks vs untreated controls
Method in brief: as §3

SETVI [18] = test: Post-emergence herbicidal action against SETVI; type: in vivo, Setaria viridis; conditions: 1280 g/ha, post-emergence at one-leaf stage, rated visually after about 3 weeks vs untreated controls
Method in brief: as §3

POLCO [19] = test: Post-emergence herbicidal action against POLCO; type: in vivo, Polygonum convolvulus; conditions: 320 g/ha, visual rating about 3 weeks after treatment
Method in brief: as §3

VIOTR [20] = test: Post-emergence herbicidal action against VIOTR; type: in vivo, Viola tricolor; conditions: 320 g/ha, visual rating about 3 weeks after treatment
Method in brief: as §3

POLCO [21] = test: Pre-emergence herbicidal action against POLCO; type: in vivo, Polygonum convolvulus; conditions: 320 g/ha, scored visually after about 3 weeks vs untreated controls
Method in brief: as §2

HORMU [22] = test: Pre-emergence herbicidal action against HORMU; type: in vivo, Hordeum murinum; conditions: 320 g/ha, scored visually after about 3 weeks vs untreated controls
Excerpt: as §1

HORMU [23] = test: Post-emergence herbicidal action against HORMU; type: in vivo, Hordeum murinum; conditions: 320 g/ha, visual rating about 3 weeks after treatment
Method: [table] Seeds of mono- and dicotyledonous weed plants are placed in plastic pots in sandy loam soil (twin sowing with one species each of mono- or dicotyledonous weed plants per pot), covered with soil and cultivated in a greenhouse under controlled growth conditions. 2 to 3 weeks after sowing, the test plants are treated at the one-leaf stage. The compounds of the invention, formulated in the form of wettable powders (WP) or as emulsion concentrates (EC), are applied to the green parts of the plants as aqueous suspension or emulsion with addition of 0.5% additive at a water application rate equivalent to 600 litres per hectare. After the test plants have been kept in the greenhouse under optimum growth conditions for about 3 weeks, the activity of the preparations is rated visually in comparison to untreated controls. For example, 100% activity=the plants have died, 0% activity=like control plants. Tables 5.1-5.16 below show the effects of selected compounds of the general formula (I) according to Tables 1 to 3 on various harmful plants at an application rate corresponding to 1280 or 320 g/ha, which have been obtained by the aforementioned experimental method.

VERPE [24] = test: Post-emergence herbicidal action against VERPE; type: in vivo, Veronica persica; conditions: 320 g/ha, visual rating about 3 weeks after treatment
Method in brief: as §3

Row | Compound | Pre-emergence action at 1280 g/ha against CYPES in % (CYPES) | Pre-emergence action at 320 g/ha against AMARE in % (AMARE [1]) | Pre-emergence action against AMARE in % (AMARE [1]) | Pre-emergence action against MATIN in % (MATIN [2]) | Pre-emergence action against PHBPU in % (PHBPU [3]) | Pre-emergence action against STEME in % (STEME [4]; 1280 g/ha) | Post-emergence action against ECHCG in % (ECHCG [6]) | Post-emergence action against AMARE in % (AMARE [7]; 1280 g/ha) | Post-emergence action against MATIN in % (MATIN [8]; 320 g/ha) | Post-emergence action against MATIN in % (MATIN [8]; 1280 g/ha) | Post-emergence action against PHBPU in % (PHBPU [9]) | Post-emergence action against STEME in % (STEME [10]; 320 g/ha) | Post-emergence action against STEME in % (STEME [10]; 1280 g/ha) | herbicidal efficacy against harmful plants in the case of pre-emergence treatment (harmful plants [11]) | Pre-emergence action at 1280 g/ha against ALOMY in % (ALOMY [13]) | Pre-emergence action at 1280 g/ha against ECHCG in % (ECHCG [14]) | Pre-emergence action against SETVI in % (SETVI [15]) | Pre-emergence action against STEME in % (STEME [4]; 320 g/ha) | Pre-emergence action against VIOTR in % (VIOTR [16]) | Pre-emergence action against POLCO in % (POLCO [21]) | other results
1 | COC(=O)COc1nn(-c2cccc(F)c2)c(-c2cccc(F)c2)c1Cl [I-003] | 100% | 100% | 100% | 100% | 80% | 100% | 80% | 80% | 80% | 80% | 80% | 80% | 80% | good herbicidal efficacy | – | – | – | – | – | – | Pre-emergence action against VERPE in % (VERPE [5]): 100%; herbicidal efficacy against harmful plants when applied post-emergence (harmful plants [12]): very good herbicidal efficacy
2 | COC(=O)C(C)Oc1nn(-c2ccccc2F)c(-c2ccccc2)c1C#N (stereo not drawn) [I-061] | 90% | 90% | 100% | 90% | 90% | 100% | 80% | 80% | – | – | 80% | – | 80% | good herbicidal efficacy | 90% | 90% | 100% | 90% | 90% | – | Post-emergence action against ALOMY in % (ALOMY [17]): 90%; Post-emergence action against SETVI in % (SETVI [18]): 80%; Post-emergence action against AMARE in % (AMARE [7]; 320 g/ha): 80%; Post-emergence action against POLCO in % (POLCO [19]): 80%; Post-emergence action against VIOTR in % (VIOTR [20]): 80%
3 | COC(=O)C(C)Oc1nn(-c2ccccc2)c(-c2ccc(F)cc2)c1C#N (stereo not drawn) [I-064] | – | 100% | – | – | – | – | – | – | 80% | – | 80% | 90% | – | – | – | – | – | 90% | – | 100% | Pre-emergence action against HORMU in % (HORMU [22]): 90%; Post-emergence action against POLCO in % (POLCO [19]): 80%; Post-emergence action against VIOTR in % (VIOTR [20]): 100%; Post-emergence action against HORMU in % (HORMU [23]): 90%
4 | CCOC(=O)COc1nn(-c2ccccc2)c(-c2ccccc2)c1Br [I-070] | 80% | 100% | 100% | 90% | 90% | 90% | 80% | 80% | – | 80% | 90% | – | 90% | good herbicidal efficacy | 90% | 90% | 90% | 80% | 90% | 80% | Post-emergence action against ALOMY in % (ALOMY [17]): 80%
5 | CCOC(=O)COc1nn(-c2ccc(F)cc2)c(-c2ccccc2)c1Br [I-072] | – | 80% | 90% | 80% | 90% | 90% | 80% | 80% | – | 80% | – | – | 80% | good herbicidal efficacy | 80% | – | 80% | – | 80% | 90% | Post-emergence action against ALOMY in % (ALOMY [17]): 80%; Post-emergence action against SETVI in % (SETVI [18]): 80%; herbicidal efficacy against harmful plants when applied post-emergence (harmful plants [12]): very good herbicidal efficacy
6 | C=CCNC(=O)COc1nn(-c2c(F)cccc2F)c(-c2ccc(F)c(F)c2)c1[N+](=O)[O-] [III-069] | – | 100% | 90% | – | – | 90% | – | – | 80% | – | – | 90% | – | good herbicidal efficacy | – | 100% | 100% | 100% | – | 90% | Pre-emergence action against VERPE in % (VERPE [5]): 100%; Pre-emergence action against HORMU in % (HORMU [22]): 90%; Post-emergence action against AMARE in % (AMARE [7]; 320 g/ha): 90%; Post-emergence action against POLCO in % (POLCO [19]): 80%; Post-emergence action against VERPE in % (VERPE [24]): 90%; Post-emergence action against HORMU in % (HORMU [23]): 80%

From patent US20230066946A1, “1,5-DIPHENYLPYRAZOLYL-3-OXYALKYL ACIDS AND 1-PHENYL-5-THIENYLPYRAZOLYL-3-OXYALKYL ACIDS AND THE USE THEREOF FOR CONTROL OF UNWANTED PLANT GROWTH” (Bayer Aktiengesellschaft, priority 2019, published 2023)
